Reference: PMC8230802, “The Effects of Food on Cannabidiol Bioaccessibility” (Molecules, 2021)
“And” between values parts separate entries of the source, which are not always exact repeats. Identical values can stand only once. Like-named read-outs stand apart in the source and are kept apart here.

Experiments:
[1] = Fasted state three-phase in vitro digestion of CBD; type: in vitro ADME; conditions: for Micellarization efficiency: CBD in AQ / DG x 100; for Digestive stability: CBD in DG / raw material x 100
Protocol: The three-step in vitro digestion employed to mimic the human digestive tract in this study consisted of an oral phase, a gastric phase, and an intestinal phase. The method used was modified slightly from a previously described protocol. For the fasted state digestion oral phase, 10 mg and 100 mg of CBD were added to 1 mL distilled water in a 50 mL pyrex glass centrifuge tube (DAIGGER Scientific, Hamilton, NJ, USA) and mixed with 1 mL oral fluid. The mixtures were vortexed for 30 s and immediately the gastric phase of digestion was started by adding pepsin into NaHCO3 and the pH was adjusted to 2.5. The mixtures were blanketed with nitrogen gas, wrapped in parafilm, and shaken in a 37 °C incubator for 1 h in the dark at 95 rpm. Meanwhile, the intestinal phase was prepared (Table S1) by mixing bile in NaHCO3 and sonicating it for 45 min. For the intestinal phase, the pancreatin-lipase (2 mL of 2:1 ratio) was mixed into the same solution as bile salt. The enzyme solution and the bile solution were added to the tube containing the gastric phase and the pH was adjusted to 6.5 using 1N NaOH. The digestion sample tubes were blanketed with nitrogen and shaken for another 2 h at 37 °C in the dark at 95 rpm. After completion of the intestinal phase, 4 mL of the resulting Digesta (DG) was transferred into conical tubes, diluted with acetonitrile DG: Acetonitrile 1:2 (v/v), blanketed with nitrogen, and kept at −80 °C for analysis by UPLC-MS. The remaining volumes of the DG samples were centrifuged at 10,000× g at 4 °C for 60 min (Beckman L7-65 Ultracentrifuge, Beckman Instruments, Palo Alto, CA, USA). After centrifugation, the aqueous supernatant (AQ) containing the micellar fractions were filtered through the 0.22 µm pore (VWR, USA), diluted with acetonitrile AQ: Acetonitrile 1:2 (v/v) and stored at −80 °C for further analysis. The insoluble pellet was dissolved into the acetonitrile 1:2 (v/v) for further analysis.
(§1) Diluted AQ and DG fractions were filtered using the 0.2 µm nylon filters for DG fraction and injected for analysis by ultra-performance liquid chromatography-mass spectrometry (UPLC-MS) to obtain CBD concentration values. Percent (%) recovery values were calculated for CBD using the following equation:(1) % Recovery=Concentration in AQ/Concentration in DG×100
(§2) CBD was quantified in pellet (P), digesta (DG) and aqueous (AQ) fractions by liquid chromatography—mass spectrometry. Digestive stability, the percentage recovery of CBD in DG fraction was calculated by dividing the moles of CBD quantified in DG by the moles of CBD quantified in raw material (RM) multiplied by 100. The micellarization efficiency is the percentage of CBD recovered in the AQ phase of digestion and was calculated by dividing the moles of CBD in AQ by the moles of CBD in DG multiplied by 100.

[2] = Fed state three-phase in vitro digestion of CBD (olive oil and baby food); type: in vitro ADME; conditions: for Digestive stability: CBD in DG / raw material x 100
Protocol: For the fed in vitro digestion experiment, CBD was mixed with foods and oil. Briefly, 10 mg and 100 mg CBD were each first mixed with 0.5 g olive oil, and then added to 2 g baby food (Turkey and Gravy, Gerber, IL, USA). The oral phase samples were vortexed for 30 s followed by the gastric and intestinal phase protocols mentioned above. After the completion of the three-phase in vitro digestion procedure, 15 mL of the DG sample was collected, blanketed with nitrogen and kept at −80 °C for further analysis. The rest of the DG sample was centrifuged at 10,000× g for 1 h at 4 °C and the AQ fraction was collected, filtered, diluted in acetonitrile 1:2 (v/v) and blanketed with nitrogen and kept at −80 °C for the UPLC-MS analysis.
as §1, §2

[3] = MS/MS survey of metabolites in digestion phases; type: in vitro ADME; conditions: DG, AQ and P phases, negative ion mode
Protocol: To further confirm the presence of any metabolites in the DG, AQ, and P phases, an MS/MS survey was performed on negative ion mode with the inclusion list of all the masses for the expected metabolites (Table S2). The setting for TOF MSMS function was as follows: centroid data format, negative mode and polarity, mass rages from 100 to 1000, time 0 min to 25.0 min and scan time 2.1 s with inter scan time of 0.1 s. The instrument parameters were as follows: capillary 3000.0 V, sample cone 35.0 V, source temperature 100 °C and collision energy 5.0.

[4] = set-up: method as in PMID 6262948; conditions: Rhesus monkeys, on average; cited from earlier work
[5] = set-up: method as in PMID 27648135; conditions: rats; cited from earlier work
[6] = with sesame oil; cited from earlier work
lipase = assay: Lipase activity assay with pNPP substrate; type: biochemical
Protocol: The lipase, pancreatin and bile were purchased from Sigma-Aldrich. The p-nitrophenyl palmitate (pNPP), a […] compound (N2752, Sigma-Aldrich), was used as a substrate for the lipase enzyme as previously described. Upon hydrolysis of palmitate from pNPP, the resulting product is 4-nitrophenol (4-NP), and can be measured spectrophotometrically at 410 nm.
Final assay enzyme concentrations were 1:2 mg/mL lipase:pancreatin and 1:2:3 mg/mL lipase: pancreatin:bile using 96 well plates separately just as in the artificial digestion protocol. Controls consisted of phosphate buffer and lipase enzyme without substrate pNPP. Experimental wells contained substrate pNPP in phosphate buffer and the lipase enzyme. All experimental and control wells were performed in triplicate. Temperature was set at 37 °C and the spectrophotometer was set to collect kinetic data over 2 h for the lipase: pancreatin (1:2) experiment. Substrate concentrations were 0.1 mM and 1.0 mM and were made from the 10.0 mM stock solution of pNPP in isopropanol. 4-NP dilutions in phosphate buffer were used to make a standard curve ranging from 5–1000 µM.
On a separate 96 well plate, the same procedure was followed for the lipase: pancreatin: bile salt (1:2:3) experiment. Control and experimental samples were the same as mentioned above for the 1:2 mg/mL lipase: pancreatin experiment. […] After an incubation period of 30 min at 37 °C, 25 µL of the reaction mixture (supernatant) was taken and immediately mixed with 1 mL of 0.1 N NaOH in a 1 mL cuvette to stop the reaction and dilute the sample. The liberated pNP was detected at 410 nm, and bile salt interference was corrected by using a blank without substrate for background subtraction. The reaction rates for this experiment were obtained from the slope of the absorbance versus the time curve by using an extinction coefficient for the p-nitrophenol (pNP) that was determined from the absorbance of pNP as a standard solution.

SMILES: C=C(C)[C@@H]1CCC(C)=C[C@H]1c1c(O)cc(CCCCC)cc1O [CBD, Cannabidiol]
- Micellarization efficiency ([1]; 10 mg CBD): 0.65 ± 0.7%
- Digestive stability ([1]; 10 mg CBD): 72.99 ± 6%
- recovery at 3 h, 10 mg CBD per digestion (in 1 mL water + 1 mL oral fluid) ([1]; 10 mg CBD, read-out: % recovery in aqueous (AQ) micellar fraction): 0.69 ± 1.5%
- recovery at 3 h, 10 mg CBD per digestion (in 1 mL water + 1 mL oral fluid) ([1]; 10 mg CBD, read-out: % recovery in digesta (DG)): 73 ± 6%
- recovery at 3 h, 10 mg CBD per digestion (in 1 mL water + 1 mL oral fluid) ([1]; 10 mg CBD, read-out: % recovery in pellet (P)): 92.2 ± 10%
- Micellarization efficiency ([1]; 100 mg CBD): 0.14 ± 0.1%
- Digestive stability ([1]; 100 mg CBD): 95.67 ± 2%
- recovery at 3 h, 100 mg CBD per digestion (in 1 mL water + 1 mL oral fluid) ([1]; 100 mg CBD, read-out: % recovery in aqueous (AQ) micellar fraction): 0.15 ± 1%
- recovery at 3 h, 100 mg CBD per digestion (in 1 mL water + 1 mL oral fluid) ([1]; 100 mg CBD, read-out: % recovery in digesta (DG)): 95.7 ± 2%
- recovery at 3 h, 100 mg CBD per digestion (in 1 mL water + 1 mL oral fluid) ([1]; 100 mg CBD, read-out: % recovery in pellet (P)): 74.1 ± 1.3%
- Increase in CBD recovery in the micellar fraction, fed vs fasted state digestion ([2]; fed digestion compared to fasted state digestion): 22 fold
- Micellarization efficiency ([2]; fed state digestion, 10 mg CBD, CBD in AQ / DG x 100): 14.15 ± 0.6%
- Digestive stability ([2]; fed state digestion, 10 mg CBD): 91.39 ± 25%
- recovery at 3 h, 10 mg CBD per digestion (in 0.5 g olive oil + 2 g baby food) ([2]; fed state digestion, 10 mg CBD, read-out: % recovery in aqueous (AQ) micellar fraction): 12.9 ± 7%
- recovery at 3 h, 10 mg CBD per digestion (in 0.5 g olive oil + 2 g baby food) ([2]; fed state digestion, 10 mg CBD, read-out: % recovery in digesta (DG)): 91.4 ± 25%
- recovery at 3 h, 10 mg CBD per digestion (in 0.5 g olive oil + 2 g baby food) ([2]; fed state digestion, 10 mg CBD, read-out: % recovery in pellet (P)): 90.2 ± 18%
- Digestive stability ([2]; fed state digestion, 100 mg CBD): 83.1 ± 25%
- recovery at 3 h, 100 mg CBD per digestion (in 0.5 g olive oil + 2 g baby food) ([2]; fed state digestion, 100 mg CBD, read-out: % recovery in aqueous (AQ) micellar fraction): 18.6 ± 10%
- recovery at 3 h, 100 mg CBD per digestion (in 0.5 g olive oil + 2 g baby food) ([2]; fed state digestion, 100 mg CBD, read-out: % recovery in digesta (DG)): 83.1 ± 25%
- recovery at 3 h, 100 mg CBD per digestion (in 0.5 g olive oil + 2 g baby food) ([2]; fed state digestion, 100 mg CBD, read-out: % recovery in pellet (P)): 87.9 ± 29%
- Metabolites of CBD in digestion phases (MS/MS survey) [3]: No metabolites of CBD were observed
- Oral bioavailability [4]: 16%
- Increase in bioavailability by co-administration of lipids [5]: 2.5 fold
- Recovery / bioavailable in the micellar fraction [6]: 30%

SMILES: CCCCCCCCCCCCCCCC(=O)Oc1ccc([N+](=O)[O-])cc1 [pNPP, p-nitrophenyl palmitate]
- % mole conversion of pNPP to NP (lipase; 0.1 mM pNPP, 1:2:3 lipase:pancreatin:bile): 95.5 ± 7.6%
- % mole conversion of pNPP to NP (lipase; 0.1 mM pNPP, 1:2 lipase:pancreatin): 93.6 ± 0.3%
- % mole conversion of pNPP to NP (lipase; 1 mM pNPP, 1:2:3 lipase:pancreatin:bile): 58.6% and 58.6 ± 5.7%
- % mole conversion of pNPP to NP (lipase; 1 mM pNPP, 1:2 lipase:pancreatin): 20.6% and 20.6 ± 0.07%

SMILES: CCCCCc1cc(O)c2c(c1)OC(C)(C)[C@@H]1CCC(C)=C[C@@H]21 [THC, Δ9-tetrahydrocannabinol]
- Increase in bioavailability by co-administration of lipids [5]: 3 fold
- Recovery / bioavailable in the micellar fraction [6]: 30%
